# Measurements published in article PMC10382584, “Macrocyclization of linear molecules by deep learning to facilitate macrocyclic drug candidates discovery” (Nature Communications, 2023).
# Legend:
# Experiment in all cases: biochemical
# Set-up in all cases: DiscoveRx KINOMEscan competition binding, percent of DMSO control signal at 100 nM
# Conditions in all cases: read-out: Fig. 4a / Percent Control / Compound 1; percent of DMSO control, competition binding
# LRRK2 = LRRK2 (Homo sapiens, UniProt Q5S007)
# Experimental: (§1) The kinase selectivity profile was performed by using the DiscoveRx KINOMEscan platform. […] Test compounds were prepared as 40× stocks in 100% DMSO and directly diluted into the assay. The results were defined as a percentage of signal between the negative (DMSO, 100% control) and the positive (control compound, 0% control) control, which was calculated as follows: percent control = [(test compound signal − positive control signal)/(negative control signal − positive control signal)] × 100.
# FLT3(ITD,F691L) = FLT3(ITD,F691L) (Homo sapiens, UniProt P36888, F691L/ITD)
# Experimental: as §1
# ERK1 = molecular target: T1, ERK1 (Homo sapiens, UniProt P27361)
# T1 construct: gene MAPK3
# T1 sequence (P27361 whole entry): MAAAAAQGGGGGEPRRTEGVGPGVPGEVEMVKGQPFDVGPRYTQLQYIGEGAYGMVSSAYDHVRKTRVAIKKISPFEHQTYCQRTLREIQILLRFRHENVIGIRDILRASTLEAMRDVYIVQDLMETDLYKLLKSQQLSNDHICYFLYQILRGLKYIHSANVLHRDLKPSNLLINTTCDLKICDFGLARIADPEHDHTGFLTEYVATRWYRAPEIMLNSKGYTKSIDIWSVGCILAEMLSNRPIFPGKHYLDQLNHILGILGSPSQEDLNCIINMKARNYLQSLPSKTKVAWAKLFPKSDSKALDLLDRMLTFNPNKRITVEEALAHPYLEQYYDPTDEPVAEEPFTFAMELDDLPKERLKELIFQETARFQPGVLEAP
# Experimental: as §1
# PLK3 = PLK3 (Homo sapiens, UniProt Q9H4B4)
# Experimental: as §1
# KIT(D816V) = KIT(D816V) (Homo sapiens, UniProt P10721, D816V)
# Experimental: as §1
# PAK1 = PAK1 (Homo sapiens, UniProt Q13153)
# Experimental: as §1
# RET(V804L) = RET(V804L) (Homo sapiens, UniProt P07949, V804L)
# RET(V804L), sequence (P07949 whole entry V804L): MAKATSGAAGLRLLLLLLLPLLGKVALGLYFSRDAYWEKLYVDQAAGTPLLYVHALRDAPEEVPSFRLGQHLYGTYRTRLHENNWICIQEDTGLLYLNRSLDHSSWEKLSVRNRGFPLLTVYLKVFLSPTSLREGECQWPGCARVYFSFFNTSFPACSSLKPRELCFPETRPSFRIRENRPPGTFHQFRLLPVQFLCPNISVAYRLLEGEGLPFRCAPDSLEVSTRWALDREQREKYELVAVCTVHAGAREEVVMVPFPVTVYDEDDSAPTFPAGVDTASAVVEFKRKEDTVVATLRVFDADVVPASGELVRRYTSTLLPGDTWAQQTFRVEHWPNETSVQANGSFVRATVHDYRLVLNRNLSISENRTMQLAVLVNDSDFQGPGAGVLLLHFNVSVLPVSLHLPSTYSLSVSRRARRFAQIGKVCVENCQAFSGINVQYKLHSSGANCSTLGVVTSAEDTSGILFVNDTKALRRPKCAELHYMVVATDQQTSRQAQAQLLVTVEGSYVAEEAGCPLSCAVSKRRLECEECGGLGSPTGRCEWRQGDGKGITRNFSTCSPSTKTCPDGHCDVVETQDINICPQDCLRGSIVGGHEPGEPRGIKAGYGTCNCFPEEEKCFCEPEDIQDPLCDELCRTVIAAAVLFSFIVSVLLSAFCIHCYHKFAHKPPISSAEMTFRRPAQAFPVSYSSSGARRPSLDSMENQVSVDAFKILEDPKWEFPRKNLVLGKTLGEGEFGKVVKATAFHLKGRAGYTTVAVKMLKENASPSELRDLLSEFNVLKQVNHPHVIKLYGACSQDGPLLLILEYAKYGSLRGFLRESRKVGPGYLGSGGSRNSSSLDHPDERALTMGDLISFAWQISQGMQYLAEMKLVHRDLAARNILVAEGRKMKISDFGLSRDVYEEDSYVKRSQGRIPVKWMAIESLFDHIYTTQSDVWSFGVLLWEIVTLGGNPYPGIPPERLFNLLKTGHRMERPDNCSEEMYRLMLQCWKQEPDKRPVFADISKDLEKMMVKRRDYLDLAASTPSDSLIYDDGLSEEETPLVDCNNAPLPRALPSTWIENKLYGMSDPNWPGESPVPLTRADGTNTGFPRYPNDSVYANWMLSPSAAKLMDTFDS
# Experimental: as §1
# TESK1 = TESK1 (Homo sapiens, UniProt Q15569)
# TESK1, sequence (Q15569 whole entry): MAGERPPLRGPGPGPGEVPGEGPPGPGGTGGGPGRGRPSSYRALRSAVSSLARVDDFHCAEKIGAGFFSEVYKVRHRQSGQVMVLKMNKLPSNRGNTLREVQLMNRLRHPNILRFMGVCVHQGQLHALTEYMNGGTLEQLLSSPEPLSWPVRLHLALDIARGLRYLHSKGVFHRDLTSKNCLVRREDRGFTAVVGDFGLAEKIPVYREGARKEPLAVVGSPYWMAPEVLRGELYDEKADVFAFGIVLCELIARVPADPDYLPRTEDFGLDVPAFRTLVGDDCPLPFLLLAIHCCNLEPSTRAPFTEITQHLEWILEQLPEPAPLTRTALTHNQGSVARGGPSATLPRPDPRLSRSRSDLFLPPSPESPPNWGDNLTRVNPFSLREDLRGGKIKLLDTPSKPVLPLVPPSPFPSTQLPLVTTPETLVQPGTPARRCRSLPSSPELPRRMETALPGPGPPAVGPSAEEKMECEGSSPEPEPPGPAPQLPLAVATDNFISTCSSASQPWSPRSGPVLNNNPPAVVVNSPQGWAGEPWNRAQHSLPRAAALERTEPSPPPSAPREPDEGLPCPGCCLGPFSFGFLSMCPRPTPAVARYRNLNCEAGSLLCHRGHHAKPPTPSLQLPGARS
# Experimental: as §1
# PRKG2 = PRKG2 (Homo sapiens, UniProt Q13237)
# Experimental: as §1
# STK39 = STK39 (Homo sapiens, UniProt Q9UEW8)
# Experimental: as §1
# MAP3K3 = MAP3K3 (Homo sapiens, UniProt Q99759)
# Experimental: as §1
# AMPK-alpha2 = molecular target: T2, AMPK-alpha2 (Homo sapiens, UniProt P54646)
# T2 construct: gene PRKAA2
# Experimental: as §1
# BRAF = BRAF (Homo sapiens, UniProt P15056)
# Experimental: as §1
# [1] = molecular target: T3, JAK3(JH1domain-catalytic) (Homo sapiens, UniProt P52333)
# T3 construct: JH1domain-catalytic
# Experimental: as §1
# CSF1R-autoinhibited = CSF1R-autoinhibited (Homo sapiens, UniProt P07333)
# Experimental: as §1
# EPHA4 = EPHA4 (Homo sapiens, UniProt P54764)
# Experimental: as §1
# EGFR(E746-A750del) = EGFR(E746-A750del) (Homo sapiens, UniProt P00533, DEL746-750)
# EGFR(E746-A750del), sequence (P00533 with tags, fused parts or gaps DEL746-750): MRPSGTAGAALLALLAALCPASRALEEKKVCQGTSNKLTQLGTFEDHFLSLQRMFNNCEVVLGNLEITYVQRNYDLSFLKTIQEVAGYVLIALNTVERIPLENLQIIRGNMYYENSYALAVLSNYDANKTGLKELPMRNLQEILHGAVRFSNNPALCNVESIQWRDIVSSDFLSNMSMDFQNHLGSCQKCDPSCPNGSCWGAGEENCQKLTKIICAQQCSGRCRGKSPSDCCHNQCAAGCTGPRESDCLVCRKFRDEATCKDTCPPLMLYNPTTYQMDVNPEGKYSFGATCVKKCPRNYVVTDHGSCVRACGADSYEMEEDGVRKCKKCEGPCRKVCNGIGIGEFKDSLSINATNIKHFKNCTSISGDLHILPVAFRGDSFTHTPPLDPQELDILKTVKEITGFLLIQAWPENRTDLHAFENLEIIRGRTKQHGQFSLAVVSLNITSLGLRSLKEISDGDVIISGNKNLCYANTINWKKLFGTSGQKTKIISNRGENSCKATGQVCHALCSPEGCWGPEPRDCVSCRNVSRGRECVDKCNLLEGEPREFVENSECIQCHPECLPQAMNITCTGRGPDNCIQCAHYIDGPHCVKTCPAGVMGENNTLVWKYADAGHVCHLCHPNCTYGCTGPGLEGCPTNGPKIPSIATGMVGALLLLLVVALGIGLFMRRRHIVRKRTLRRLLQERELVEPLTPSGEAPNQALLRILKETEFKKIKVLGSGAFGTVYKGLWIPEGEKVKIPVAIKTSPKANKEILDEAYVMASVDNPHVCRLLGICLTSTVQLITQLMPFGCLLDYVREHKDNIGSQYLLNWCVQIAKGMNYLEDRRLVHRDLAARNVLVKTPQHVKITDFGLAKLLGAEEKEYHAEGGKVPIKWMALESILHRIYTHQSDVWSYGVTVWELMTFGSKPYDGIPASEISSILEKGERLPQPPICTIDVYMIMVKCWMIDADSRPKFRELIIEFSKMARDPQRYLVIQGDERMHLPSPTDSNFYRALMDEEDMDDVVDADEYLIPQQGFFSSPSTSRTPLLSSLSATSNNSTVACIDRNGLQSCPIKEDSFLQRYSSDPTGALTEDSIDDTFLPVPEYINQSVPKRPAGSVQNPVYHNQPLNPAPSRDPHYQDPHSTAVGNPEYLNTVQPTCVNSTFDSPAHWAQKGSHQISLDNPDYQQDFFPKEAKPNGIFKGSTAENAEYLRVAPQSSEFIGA
# Experimental: as §1
# DCAMKL2 = molecular target: T4, DCAMKL2 (Homo sapiens, UniProt Q8N568)
# T4 construct: gene DCLK2
# Experimental: as §1
# LIMK1 = LIMK1 (Homo sapiens, UniProt P53667)
# Experimental: as §1
# HASPIN = HASPIN (Homo sapiens, UniProt Q8TF76)
# Experimental: as §1
# FLT3(K663Q) = FLT3(K663Q) (Homo sapiens, UniProt P36888, K663Q)
# Experimental: as §1
# TXK = TXK (Homo sapiens, UniProt P42681)
# TXK, sequence (P42681 whole entry): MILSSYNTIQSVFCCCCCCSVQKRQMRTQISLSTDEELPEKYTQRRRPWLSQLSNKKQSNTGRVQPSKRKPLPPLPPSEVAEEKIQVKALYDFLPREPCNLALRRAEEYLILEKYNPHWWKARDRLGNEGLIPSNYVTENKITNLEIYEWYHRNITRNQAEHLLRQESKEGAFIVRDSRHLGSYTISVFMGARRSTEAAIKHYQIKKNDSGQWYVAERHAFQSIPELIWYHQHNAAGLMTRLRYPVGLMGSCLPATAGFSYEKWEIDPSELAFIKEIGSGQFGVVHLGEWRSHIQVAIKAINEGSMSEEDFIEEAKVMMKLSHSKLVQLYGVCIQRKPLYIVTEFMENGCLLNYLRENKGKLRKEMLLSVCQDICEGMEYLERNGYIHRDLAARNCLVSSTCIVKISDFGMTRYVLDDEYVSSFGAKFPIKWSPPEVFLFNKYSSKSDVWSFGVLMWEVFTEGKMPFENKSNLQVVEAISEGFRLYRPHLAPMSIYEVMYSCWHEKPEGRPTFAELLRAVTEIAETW
# Experimental: as §1
# HCK = HCK (Homo sapiens, UniProt P08631)
# Experimental: as §1
# [2] = molecular target: T5, JAK1(JH1domain-catalytic) (Homo sapiens, UniProt P23458)
# T5 construct: JH1domain-catalytic
# T5 sequence (P23458 whole entry): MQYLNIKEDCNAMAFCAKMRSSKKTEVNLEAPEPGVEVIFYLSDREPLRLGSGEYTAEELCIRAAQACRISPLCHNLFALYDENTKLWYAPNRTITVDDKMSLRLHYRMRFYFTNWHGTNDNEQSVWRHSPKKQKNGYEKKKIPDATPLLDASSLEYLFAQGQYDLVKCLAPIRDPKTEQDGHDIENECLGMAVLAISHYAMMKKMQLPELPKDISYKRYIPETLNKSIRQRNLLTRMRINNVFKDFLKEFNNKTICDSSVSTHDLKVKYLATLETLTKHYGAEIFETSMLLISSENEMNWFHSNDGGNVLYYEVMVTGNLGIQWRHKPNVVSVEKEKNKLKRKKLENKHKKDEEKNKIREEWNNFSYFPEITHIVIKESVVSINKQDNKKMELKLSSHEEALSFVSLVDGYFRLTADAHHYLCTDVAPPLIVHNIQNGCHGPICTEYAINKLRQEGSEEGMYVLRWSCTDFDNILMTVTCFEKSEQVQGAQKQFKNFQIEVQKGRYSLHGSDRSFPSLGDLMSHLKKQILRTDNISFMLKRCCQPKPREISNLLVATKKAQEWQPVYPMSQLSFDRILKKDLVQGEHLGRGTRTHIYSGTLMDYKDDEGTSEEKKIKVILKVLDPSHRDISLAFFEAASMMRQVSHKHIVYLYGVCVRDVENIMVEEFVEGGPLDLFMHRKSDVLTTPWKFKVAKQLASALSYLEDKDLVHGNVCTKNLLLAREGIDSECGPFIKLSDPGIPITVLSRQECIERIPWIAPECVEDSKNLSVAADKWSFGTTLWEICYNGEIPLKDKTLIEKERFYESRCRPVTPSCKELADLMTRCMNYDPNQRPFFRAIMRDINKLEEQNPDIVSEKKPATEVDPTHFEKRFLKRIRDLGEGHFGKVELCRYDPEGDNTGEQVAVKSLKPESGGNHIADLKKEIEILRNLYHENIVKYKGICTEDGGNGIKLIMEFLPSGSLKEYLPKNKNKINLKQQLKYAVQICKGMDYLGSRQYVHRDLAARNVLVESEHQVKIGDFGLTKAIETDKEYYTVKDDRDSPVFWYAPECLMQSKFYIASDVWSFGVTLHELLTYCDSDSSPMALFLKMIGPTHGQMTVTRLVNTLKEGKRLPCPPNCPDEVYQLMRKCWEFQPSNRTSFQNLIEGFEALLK
# Experimental: as §1
# FLT4 = FLT4 (Homo sapiens, UniProt P35916)
# Experimental: as §1
# 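Further: KINOMEscan kinase panel binding assay, signal normalized between DMSO as 100% and a positive control compound as 0%.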
compound,measurement,setting,value
Cc1cnc2nc1Nc1cccc(c1)COCc1cc(ccc1OCCN1CCCC1)N2 [Compound 1],remaining binding at 0.1 µM,LRRK2,85%
same,remaining binding at 0.1 µM,"FLT3(ITD,F691L)",0%
same,remaining binding at 0.1 µM,ERK1,100%
same,remaining binding at 0.1 µM,PLK3,99%
same,remaining binding at 0.1 µM,KIT(D816V),89%
same,remaining binding at 0.1 µM,PAK1,100%
same,remaining binding at 0.1 µM,RET(V804L),88%
same,remaining binding at 0.1 µM,TESK1,85%
same,remaining binding at 0.1 µM,PRKG2,47%
same,remaining binding at 0.1 µM,STK39,62%
same,remaining binding at 0.1 µM,MAP3K3,74%
same,remaining binding at 0.1 µM,AMPK-alpha2,97%
same,remaining binding at 0.1 µM,BRAF,93%
same,remaining binding at 0.1 µM,[1],12%
same,remaining binding at 0.1 µM,CSF1R-autoinhibited,54%
same,remaining binding at 0.1 µM,EPHA4,100%
same,remaining binding at 0.1 µM,EGFR(E746-A750del),89%
same,remaining binding at 0.1 µM,DCAMKL2,96%
same,remaining binding at 0.1 µM,LIMK1,88%
same,remaining binding at 0.1 µM,HASPIN,79%
same,remaining binding at 0.1 µM,FLT3(K663Q),36%
same,remaining binding at 0.1 µM,TXK,94%
same,remaining binding at 0.1 µM,HCK,100%
same,remaining binding at 0.1 µM,[2],32%
same,remaining binding at 0.1 µM,FLT4,85%
